A short description of assay [1]: Antioxidant activity assessed as galvinoxyl radical scavenging activity by measuring second order rate constant by UV-vis spectrometric analysis. In kind it is functional.
A short description of assay [2]: Antioxidant activity assessed as galvinoxyl radical scavenging activity by measuring increase in pseudo first-order rate constant UV-vis spectrometric analysis. In kind it is functional.

Each structure is given as a SMILES string.

Turning to `O=c1c(O)c(-c2ccc(O)c(O)c2)oc2cc(O)ccc12`, the K in assay [1] is 7.58 ×10¹ /M/s.
On the same count and under the same terms, the value for `Cc1cc(-c2oc3cc(O)ccc3c(=O)c2O)cc(O)c1O` was 1.66 ×10⁵ /M/s.
Turning to `Cc1c(-c2oc3cc(O)ccc3c(=O)c2O)ccc(O)c1O`, the K in assay [1] amounted to 1.55 ×10² /M/s.
Turning to `Cc1cc(-c2oc3cc(O)ccc3c(=O)c2O)c(C)c(O)c1O`, the K in assay [1] is 1.58 ×10³ /M/s. In addition, in assay [2], the Activity result is “Dose-dependent effect”.

The record behind these values is ChEMBL document CHEMBL4480440, “Synthesis and radical-scavenging activity of C-methylated fisetin analogues” (Bioorg Med Chem, 2019).
